ChEMBL document CHEMBL1201862, “PubChem BioAssay data set” (2004)
The source made the active and inactive calls.

Legend:
Danio rerio = experiment: In Vivo Angiogenesis Dose-Response Confirmation. [Related pubchem assays: 732 (Assay preceding this confirmatory assay.)]; type: functional, organism-based
Genome polyprotein = Genome polyprotein (Hepatitis C virus, UniProt Q2Q167); experiment: HCV core protein dimerization inhibitors, dose response, biochemical, TR-FRET (AID 2159); set-up: species or system Hepacivirus hominis;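 further: blocks dimerization of HCV core protein measured by TR-FRET between tagged core106 pairs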
[1] = molecular target: Luciferin 4-monooxygenase (Photinus pyralis, UniProt P08659); experiment: firefly luciferase enzyme inhibitors, dose response, biochemical, luminescence (AID 1891)
[2] = Luminescence Cell-Based Dose Confirmation HTS to Identify Inhibitors of Platelet Dense Granule Release. [Related pubchem assays: 1663 (Primary HTS), 1678 (Summary of Project)]; type: functional
[3] = Fluorescence Cell-Based Dose Response to Identify Inhibitors of Thrombin Receptor-Activating Peptide SFLLRN-Mediated P-Selectin Induction on Platelets. [Related pubchem assays: 1663 (Primary HTS), 1889 (retest at dose ), 1891 (counterscreen), 1678 (Project Summary)]; type: functional
[4] = molecular target: Diphosphomevalonate decarboxylase (Streptococcus pneumoniae serotype 2 (strain D39 / NCTC 7466), UniProt Q9FD53); experiment: S. pneumoniae DPM-DC inhibition retest, confirmation, biochemical, cuvette format, coupled NADH fluorescence (AID 1028); type: functional
Diphosphomevalonate decarboxylase, sequence (Q9FD53 whole entry): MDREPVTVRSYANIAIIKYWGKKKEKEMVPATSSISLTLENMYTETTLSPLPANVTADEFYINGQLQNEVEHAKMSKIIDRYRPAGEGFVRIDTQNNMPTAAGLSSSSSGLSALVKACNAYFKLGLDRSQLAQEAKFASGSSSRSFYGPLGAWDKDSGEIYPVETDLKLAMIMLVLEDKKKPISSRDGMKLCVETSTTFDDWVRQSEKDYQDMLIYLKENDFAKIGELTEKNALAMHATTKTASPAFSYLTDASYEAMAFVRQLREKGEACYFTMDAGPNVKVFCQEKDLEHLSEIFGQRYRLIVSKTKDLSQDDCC

Luciferin 4-monooxygenase, sequence (P08659 whole entry): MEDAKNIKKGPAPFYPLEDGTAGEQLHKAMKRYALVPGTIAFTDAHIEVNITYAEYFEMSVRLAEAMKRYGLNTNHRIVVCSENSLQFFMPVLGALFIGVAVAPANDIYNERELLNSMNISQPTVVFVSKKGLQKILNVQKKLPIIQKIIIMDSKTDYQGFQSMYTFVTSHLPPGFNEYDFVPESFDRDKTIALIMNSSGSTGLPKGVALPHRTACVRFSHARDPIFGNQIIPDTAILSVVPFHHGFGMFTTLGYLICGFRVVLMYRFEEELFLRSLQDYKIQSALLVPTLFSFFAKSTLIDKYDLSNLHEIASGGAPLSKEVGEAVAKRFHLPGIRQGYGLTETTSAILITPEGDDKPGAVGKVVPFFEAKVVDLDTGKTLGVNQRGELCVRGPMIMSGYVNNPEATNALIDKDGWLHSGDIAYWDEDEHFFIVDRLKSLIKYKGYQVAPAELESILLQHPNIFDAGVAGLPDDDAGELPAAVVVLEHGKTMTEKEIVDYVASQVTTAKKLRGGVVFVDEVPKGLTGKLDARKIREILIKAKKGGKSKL
Genome polyprotein, sequence (Q2Q167 whole entry): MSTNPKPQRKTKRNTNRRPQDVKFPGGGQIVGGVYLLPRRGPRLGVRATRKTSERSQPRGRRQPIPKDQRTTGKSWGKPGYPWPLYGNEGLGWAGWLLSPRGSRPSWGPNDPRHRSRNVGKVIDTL

O=C1Nc2ccc(F)cc2/C1=C1/Nc2ccccc2/C1=N\O
IC50 (Danio rerio): 0.38 µM (not active)

Cc1ccc(-c2nc(=S)c3c(n2Cc2ccco2)CC(C)(C)OC3)cc1
IC50 (Genome polyprotein): > 49.8 µM (not active)

CCC(=O)Nc1cccc(NC(=O)c2ccccc2Cl)c1
EC50 [1]: > 112 µM (not active) | EC50 [2]: 3.42 µM (active) | EC50 [3]: < 30 µM (active)

O=C(c1ccc(-n2sc3ccccc3c2=O)cc1)N1CCCC1
IC50 [4]: 8.66 µM (active)
